Assay results from patent publication US6716829B2, “Aldosterone antagonist and cyclooxygenase-2 inhibitor combination therapy to prevent or treat inflammation-related cardiovascular disorders” (Pharmacia Corporation, priority 2000, dated 2004).
Values joined by “and” are separate entries in the source; they are usually repeats but may differ in a detail not shown here. Equal entries are not always repeated. “Also recorded” adds a separate entry of the source.

Tests used:
[1] = system: interstitial collagen; assay: Assay B: myocardial fibrosis (interstitial collagen volume fraction, hydroxyproline concentration); format: in vivo, Male Sprague Dawley rats; settings: aldosterone/salt treatment, 4 weeks
Procedure: Assay B: In Vivo Aldosterone Infusion Model Male Sprague Dawley rats (n=39; BW=250 g) […] Uni-nephrectomy performed during implantation of mini-pumps 2. Aldosterone ([…], sc via alzet minipump) 2. […] Hearts were stained with hematoxylin&eosin and the collagen specific dye picro-sirius red and were analyzed for determination of interstitial collagen volume fraction and morphologic abnormalities (i.e. necrosis, vascular injury). Hydroxyproline concentration was measured in the frozen hearts.

[2] = system: osteopontin; assay: Assay B: osteopontin mRNA in heart by quantitative RT-PCR (Taqman); format: in vivo, Male Sprague Dawley rats
Procedure: (§1) Assay B: In Vivo Aldosterone Infusion Model Male Sprague Dawley rats (n=39; BW=250 g) 2. Aldosterone ([…], sc via alzet minipump) 2. […] Hearts were harvested and divided by half through a transverse section at the mid-ventricles: The upper half was stored into formalin. The bottom part was snap-frozen in liquid nitrogen for biochemical analysis. Determination of osteopontin and COX-2 was performed by quantitative RT-PCR (Taqman). Osteopontin was also identified in the heart by immunohistochemistry.

[3] = system: COX-2; assay: Assay B: COX-2 mRNA in heart by quantitative RT-PCR (Taqman); format: in vivo, Male Sprague Dawley rats
Procedure: as §1

[4] = system: Transforming growth factor beta 1 (TGFβ1); assay: Assay C: TGFβ1 mRNA by TaqMan RT-PCR; format: in vivo, Male Sprague-Dawley rats; settings: for TGF-β1 mRNA (AU): relative to cyclophilin expression, mean ± SEM, eplerenone dose 100 mg/kg/day; for TGF-β (AU): mRNA, individual rats, incl. rat marked * excluded from statistics
Procedure: The procedure of Assay B was expanded upon in a further study. […] Myocardial tissue from animals in each treatment group was examined after 7, 14, or 30 days of treatment.
Potassium chloride supplementation was added to the saline solution in order to prevent the potential hypokalemia associated with aldosterone excess.
At the time of the surgery, an Alzet 2002 osmotic minipump (Alza Corp., Palo Alto, Calif.) containing either vehicle (9% ethanol/87% propylene glycol/4% dH2O) or 1.0 mg/mL d-aldosterone (Sigma Chemical, St. Louis, Mo.) was inserted subcutaneously at the nape of the neck. Aldosterone was administered at a dose of 0.75 µg/hour. […] Animals were sacrificed from each group (n=8-13) after 7, 14, or 30 days of treatment.
The fluorogenic 5′-nuclease assay (TaqMan PCR) using Applied Biosystems' 7700 Sequence Detection System (Applied Biosystems, Foster City, Calif.) allowed for real time detection/quantitation of a specific gene by monitoring the increase in fluorescence of a gene-specific, dye-labeled oligonucleotide probe. Probes for target and reference genes were labeled at the 5′-end with a 6-carboxyfluorescein (6FAM) reporter dye and at the 3′-end with a 6-carboxy-N,N,N′,N′-tetramethylrhodamine (TAMRA) quencher dye. When the probe was annealed to the target gene, fluorescence of 6FAM was prevented by the close proximity of TAMRA. The exonuclease activity of Taq polymerase released the dyes from the oligonucleotide probe by displacing the probe from the target sequence resulting in fluorescence excitation in direct proportion to the amount of target message present. Data analysis was performed using the Sequence Detection System software from Applied Biosystems.
Primers and probes were designed using Oligo Primer Analysis Software, Version 5.0 (National Biosciences Inc. (NBI)-Wojciech Rychlik, Cascade, Colo.). Primers were synthesized by Life Technologies (Grand Island, N.Y.) and probes were synthesized by Applied Biosystems. Primer/probe sets were designed from known sequences of rat genes to be analyzed. All target gene values were normalized to a reference gene, constitutively expressed cyclophilin. Primer/probe sets sequences can be found in Table 8
RNA was extracted from frozen (−70° C.) left ventricle (LV) tissue (approximately 10-20 mg) using 1.5 mL RNA-STAT 60 according to manufacturer's instructions (Leedo Medical Laboratories, Inc., Houston, Tex.). Briefly, tissues were homogenized using a tissue homogenizer equipped with a 5 mm probe (Ultra-Turrax T8 Homogenizer, IKA Works, Inc. Wilmington, N.C.). Following homogenization, an equal volume of molecular grade chloroform (Sigma Chemical Co., St. Louis, Mo.) was incubated with periodic mixing for 10 min at room temperature. Samples were centrifuged at 12,000 g for 10 min and RNA was precipitated from the top layer by adding an equal volume of molecular grade isopropanol (Sigma Chemical Co.) followed by an overnight incubation at −80° C. RNA was pelleted by centrifugation at 12,000 g, washed with 75% ethanol, and solubilized in nuclease-free water (Promega, Madison, Wis.).
Double-stranded cDNA was synthesized by adding 400 ng RNA (4 uL) to a final volume of 20 uL containing 15% nuclease-free water (Promega, Madison, Wis.), 1×RT Buffer (Life Technologies, Grand Island, N.Y.), 10 mM DTT (Life Technologies), 0.5 mM each of dATP, dTTP, dGTP, dCTP (PE Biosystems, Foster City, Calif.), 2.5 μM Oligo d(T)15 (Oligo Therapeutics, Inc., Wilsonville, Oreg.), 40 units RNAsin (Promega), and 200 units SuperScript II Reverse Transcriptase (Life Technologies). The reactions were performed in thin-walled reaction tubes with caps (Applied Biosystems) to ensure accurate reaction temperatures.

[5] = system: angiotensin II infused rats; assay: Assay A: urinary electrolyte excretion (urinary Na+/K+ ratio as index for natriuresis); format: in vivo, Male Wistar rats; settings: 1% NaCl, eplerenone 100 mpk
Source text: 24-hours food and fluid intake and urine output measured every day Urine samples collected every day for determination of urinary electrolytes. Electrolyte excretion. The ratio between daily urinary Na^+ excretion and urinary K^+ excretion (U Na^+/K^+ ratio) was used as an index for natriuresis. Urinary Na^+/K^+ ratio was similar in all groups before the start of the treatments, and increased similarly in all animals upon initiation of the high salt diet.

[6] = system: osteopontin; assay: Assay B: serum (circulating) osteopontin levels at 28 days; format: in vivo, Male Sprague Dawley rats; settings: NaCl 1% drinking rats with aldosterone and eplerenone
Procedure: (§2) Assay B: In Vivo Aldosterone Infusion Model Male Sprague Dawley rats (n=39; BW=250 g) 2. Aldosterone (0.75 mg/hr, sc via alzet minipump) 2.

[7] = system: MCP-1; assay: Assay B: MCP-1 mRNA expression at 28 days; format: in vivo, Male Sprague Dawley rats; settings: aldosterone infused rats, 28 days (FIG. 46)
Procedure: as §2

[8] = system: IL-6; assay: Assay B: IL-6 mRNA expression at 28 days; format: in vivo, Male Sprague Dawley rats; settings: aldosterone infused rats, 28 days (FIG. 46)
Procedure: as §2

[9] = system: angiotensin II infused, captopril treated stroke prone spontaneously hypertensive rats; assay: Urinary protein excretion in angiotensin II infused, captopril treated stroke prone spontaneously hypertensive rats; format: in vivo; settings: captopril treated stroke prone spontaneously hypertensive rats (FIG. 35)
[10] = system: angiotensin II infused, captopril treated stroke prone spontaneously hypertensive rats; assay: Histopathological scores for renal injury in angiotensin II infused, captopril treated stroke prone spontaneously hypertensive rats; format: in vivo; settings: captopril treated stroke prone spontaneously hypertensive rats (FIG. 36)
[11] = system: stroke-prone spontaneously hypertensive rats; assay: Survival and cerebral injury in stroke-prone spontaneously hypertensive rats; format: in vivo
[12] = aldosterone/salt + vehicle vs control
[13] = hearts of aldosterone/salt-treated rats, quantitative RT-PCR, eplerenone 100 mpk

In the case of C[C@]12CCC(=O)C=C1CC[C@@H]1[C@@H]2[C@@H](O)C[C@]2(C=O)[C@@H](C(=O)CO)CC[C@@H]12 [Aldosterone], the “Myocardial fibrosis (interstitial collagen volume fraction, hydroxyproline concentration)” value [1] is reported as “absence of myocardial fibrosis”, the “Osteopontin mRNA upregulation” value [2, 12] is reported as 7 fold and the “Osteopontin relative mRNA expression” value [2, 13] is reported as 12.25±1.7. For the same compound, the “COX-2 mRNA expression increase” value [3, 12] was 3 fold, the “COX-2 relative mRNA expression” value [3, 13] was 3.7±0.46 and the “TGF-β1 mRNA (AU)” value ([4]; after 7 days of treatment) was 1.35 AU. For the same compound, the “TGF-β1 mRNA (AU)” value ([4]; after 14 days of treatment) was 1.27 AU, the “TGF-β1 mRNA (AU)” value ([4]; after 30 days of treatment) was 1.33 AU and the “TGF-β (AU)” value ([4]; data used for Table 17 (7-day protocol), listed as Aldosterone + salt) was 1.23 AU and 0.98 AU and 1.31 AU and 1.89 AU and 1.22 AU and 1.45 AU and 1.47 AU and 1.21 AU and 1.35 AU. The “TGF-β (AU)” value ([4]; data used for Table 18 (14-day protocol), listed as Aldosterone + salt) was 1.26 AU and 1.85 AU and 0.55 AU and 1.91 AU and 1.49 AU and 1.18 AU and 1.32 AU and 1.27 AU and 0.56 AU and 1.29 AU and the “TGF-β (AU)” value ([4]; data used for Table 19 (30-day protocol), listed as Aldosterone + salt) was 1.41 AU and 1.27 AU and 2.11 AU and 1.20 AU and 1.95 AU and 1.49 AU and 0.83 AU and 0.54 AU and 1.21 AU.

For COC(=O)[C@@H]1CC2=CC(=O)CC[C@]2(C)[C@@]23O[C@@H]2C[C@@]2(C)[C@@H](CC[C@@]24CCC(=O)O4)[C@H]13 [Eplerenone], the “Urinary Na+/K+ ratio (diuretic or natriuretic effect)” value [5] was “did not produce a significant diuretic or natriuretic effect”, the “Circulating (serum) osteopontin levels” value [6] was “marked decrease” and the MCP-1 expression [7] was “attenuated”. For the same compound, the IL-6 expression [8] was “attenuated”, the “TGF-β1 mRNA (AU)” value ([4]; after 7 days of treatment) was 0.99 AU and the “TGF-β1 mRNA (AU)” value ([4]; after 14 days of treatment) was 1.26 AU. For the same compound, the “TGF-β1 mRNA (AU)” value ([4]; after 30 days of treatment) was 1.32 AU, the “TGF-β (AU)” value ([4]; data used for Table 17 (7-day protocol), listed as Eplerenone + aldosterone + salt) was 0.80 AU (2×) and 0.81 AU and 0.51 AU and 1.31 AU and 1.02 AU and 0.61 AU and 0.84 AU and 1.51 AU and 1.64 AU and the “TGF-β (AU)” value ([4]; data used for Table 18 (14-day protocol), listed as Eplerenone + aldosterone + salt) was 0.58 AU and 0.62 AU and 1.04 AU and 1.42 AU and 1.29 AU and 1.49 AU and 0.71 AU and 1.21 AU and 1.44 AU and 1.69 AU and 2.41 AU. For the same compound, the “TGF-β (AU)” value ([4]; data used for Table 19 (30-day protocol), listed as Eplerenone + aldosterone + salt) was 1.00 AU and 1.49 AU and 1.40 AU and 1.31 AU and 0.96 AU and 1.93 AU and 1.54 AU and 1.32 AU and 0.89 AU and 1.35 AU, the “Increased urinary protein excretion” value [9] was “inhibition” and the “Histopathological scores for renal injury” value [10] was “reduction”. The Survival ([11]; stroke-prone spontaneously hypertensive rats (FIG. 37)) was “increased survival” and the Cerebral injury ([11]; stroke-prone spontaneously hypertensive rats (FIGS. 37, 38)) was “reduced cerebral injury; also recorded: decrease”.
